According to US20230330059A1, “3-PHENYL-2H-CHROMENE DERIVATIVE AND PHARMACEUTICAL COMPOSITION FOR PREVENTING OR TREATING ALZHEIMER'S, CONTAINING SAME” (NEUROBIONET, INC., priority 2020, published 2023):

What was measured:
[1] = tested on: nitric oxide production in LPS-treated primary microglia; experiment: Nitric oxide production (Griess) in LPS-treated primary microglia; assay type: cell-based, ICR mice; details: FIG. 9a
Description: BV2 cells were seeded at a density of 4 x 10^5 cells/well into 96-well plates, and primary microglial cells isolated from the brain of […] ICR mice were seeded at a density of 4 x 10^5 cells/well into 24-well plates.
After stabilization for 24 hours, the cells were treated with various concentrations (1 and 5 µM) of daidzein, o-desmethylangolensin, S-equal, SPA1413, and SPA1426 for 30 minutes and then with LPS (100 ng/ml) for 24 hours at 37° C. The culture media were collected and measured for NO production using a Griess reagent solution (1% sulfanilamide and 0.1% N-1-naphthyl ethylenediamine dihydrochloride in 5% phosphoric acid). Briefly, a total of 50 µL of the supernatant was transferred to new 96-well plates and mixed with the same volume of the Griess reagent solution, followed by measuring OD at 570 nm. In addition, the cell viability was assayed in the same manner as in Experimental Example 2.

[2] = tested on: COX-2; experiment: COX-2 protein expression (western blot) in LPS-treated BV2 cells; assay type: cell-based, mouse; details: 5 µM, LPS (100 ng/ml) 24 hours, FIG. 11a
Description: (§1) BV2 cells were aliquoted at a density of 1x10^6 cells/well into 60 mm dishes and stabilized for 24 hours. Thereafter, the cells were treated with 5 µM of S-equal, SPA1413, or SPA1426 for 30 minutes and then with LPS (100 ng/ml) for 24 hours at 37° C. After being cultured to reach 100% confluence, the cells were washed with PBS and lysed with a lysis buffer (PRO-PREP™ Protein Extraction Solution, Intron Biotechnology, Seongnam, Korea). With bovine serum albumin (BSA) serving as a standard, the protein contents of the lysate supernatants were measured by Bio-Rad Protein Assay (Bio-Rad, California, USA) to determine the total protein content in each sample. Afterwards, each of the samples was loaded in a protein amount of 30 µg on a 10-12% SDS-PAGE gel and run for electrophoresis. The electrophorized proteins were transferred to a PVDF membrane which was then blocked with 5% skim milk and incubated with antibodies to COX-2 or iNOS (Cell Signaling Technologies, Massachusetts, USA). Detection was conducted with a ChemiDoc XRS+ imaging system (Bio-Rad, CA, USA).

[3] = tested on: LPS-treated primary microglia; experiment: Cell viability of LPS-treated primary microglia; assay type: cell-based, ICR mice; details: FIG. 9b
[4] = tested on: LPS-treated BV2 cells; experiment: Cell viability of LPS-treated BV2 cells; assay type: cell-based, mouse; details: FIG. 8b
Description: Mouse-derived microglia (BV2 cells) purchased from the Korean Cell Line Bank were seeded at a density of 4x10^5 cells/well into 96-well plates, each well containing DMEM (Dulbecco’s Modified Eagle’s Media) supplemented with 10% FBS and 1% antibiotics, and stabilized by incubation for 24 hours. Thereafter, the cells were treated for 24 hours with various concentrations (0.5, 1, and 5 µM) of daidzein, o-desmethylangolensin (O-DMA), S-equal, SPA1413, and SPA1426. After removal of the medium, the cells were treated 0.5 mg/ml 3-(4,5-dimethylthiazol-2-yl)-2,5-diphenyltetrazolium bromide (MTT) solution 1 hour. The reduced formazan was dissolved in 150 µl of dimethyl sulfoxide (DMSO) and absorbance was read at 570 nm in a microspectrophotometer to determine cell viability. Cell viability of the cells treated with each sample was determined relative to that of the untreated normal control (Control), which was set to be 100%, and the results are depicted in FIGS. 3 and 4 (upper).
After stabilization for 24 hours, the cells were treated with various concentrations (1 and 5 µM) of daidzein, o-desmethylangolensin, S-equal, SPA1413, and SPA1426 for 30 minutes and then with LPS (100 ng/ml) for 24 hours at 37° C. […]

[5] = tested on: PSEN1 gene expression in PSEN1-overexpressed HEK293 cells; experiment: Inhibition of dementia gene PSEN1 expression (qRT-PCR); assay type: cell-based; details: 0.1 and 1 µM, 24 hours, FIG. 17
Description: HEK293 cells and PSEN1-overexpressed HEK293 cells were seeded at a density of 1x10^6 cells/well into 6-well plates containing a DMEM medium and stabilized overnight, following by treating the cells with or without various concentrations (0.1 and 1 µM) of the sample (SPA1413) for 24 hours. Thereafter, RNA was extracted from the cells, using TRIzol reagent. Reverse transcription was performed using the GoScript™ reverse transcription system according to the manufacturer’s instructions. A qRT-PCR reaction was performed in a volume of 20 µl using the standard SYBR Green PCR kit and Roche Light® Instrument according to the standard protocol. Relative gene expression levels were calculated by the 2^-ΔΔCt method.

[6] = tested on: IL-6; experiment: IL-6 production (ELISA) in LPS-treated BV2 cells; assay type: cell-based, mouse; details: 5 µM, LPS (100 ng/ml) 24 hours, FIG. 10a
Description: BV2 cells were seeded at a density of 4x10^5 cells/well into 96-well plates and stabilized for 24 hours. Thereafter, the cells were treated with 5 µM of daidzein, o-desmethylangolensin, S-equal, SPA1413, or SPA1426 for 30 minutes and then with LPS (100 ng/ml) for 24 hours at 37° C. The culture medium was collected and quantitatively measured for IL-6 and TNF-a released to the BV2 culture supernatant, using the enzyme immunoassay method […] Enzyme-Linked Immuno Assay (ELISA) kit (R&D systems, Minneapolis, MN, USA). The IL-6 and TNF-a releases from the groups treated with the samples were evaluated relative to that from the LPS-treated group, which was set to be 100%, and the results are depicted in FIGS. 10a and 10b.

[7] = tested on: iNOS; experiment: iNOS protein expression (western blot) in LPS-treated BV2 cells; assay type: cell-based, mouse; details: 5 µM, LPS (100 ng/ml) 24 hours, FIG. 11b
Description: as §1

[8] = target: T1, Aβ42 (Homo sapiens, UniProt P05067); experiment: Multimer detection system (MDS) assay of Aβ42 oligomerization; assay type: biochemical; details: compounds 100 µM, Aβ42 200 µg/mL; compared to negative control and Daidzein or Equol; FIG. 2
T1 construct: 1,1,1,3,3,3-hexafluoro-2-propanol-treated Aβ42 (# A-1163-1, rPeptide); purchased rPeptide A-1163-1
T1 sequence (P05067 672-713 limits assumed): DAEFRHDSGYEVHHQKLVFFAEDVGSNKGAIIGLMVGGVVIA
Description: The drugs selected on the basis of the ThT assay results were evaluated for inhibitory activity against the oligomerization of Aβ42, using a multimer detection system (MDS) assay. Immediately after being dissolved in 1% NH4OH (# 221228, Sigma-Aldrich), 1,1,1,3,3,3-hexafluoro-2-propanol-treated Aβ42 (# A-1163-1, rPeptide) was diluted in 500 µL of phosphate-buffered saline (PBS; pH 7.5), aliquoted into 1.5-mL tubes, and stored at -80° C. until use. Aβ42 and the compounds were mixed with PBS to make final concentrations of 200 µg/mL and 100 µM, respectively, and incubated at room temperature. Aggregation of Aβ42 was terminated by maintaining at -80° C.
After the reaction between each drug and Aβ42, the oligomeric form of Aβ42 was measured for each time to measure inhibitory effects on the oligomer.

SMILES | NO production [1] | expression level of COX-2 [2] | cell viability compared to the group treated with LPS [3] | cell viability compared to the group treated with LPS [4] | PSEN1 gene expression [5] | IL-6 production [6] | expression level of iNOS [7] | inhibition of Aβ42 oligomerization [8]
Oc1ccc(C2=Cc3ccc(O)cc3OC2)cc1 [SPA1413, 3-(4-Hydroxyphenyl)-2H-chromen-7-ol] | decreased NO production in dose-dependent manners | significantly decreased | increased | increased | inhibited the upregulated expression of PSEN1 gene | significantly decreased | significantly decreased | exhibited inhibitory effects on Aβ42 oligomerization
CCCC(=O)Oc1ccc(C2=Cc3ccc(OC(=O)CCC)cc3OC2)cc1 [SPA1426, 4-(7-(butyryloxy)-2H-chromen-3-yl)phenyl butyrate] | decreased NO production in dose-dependent manners | significantly decreased | increased | increased |  | significantly decreased | significantly decreased | exhibited inhibitory effects on Aβ42 oligomerization
